Entries after “also recorded” stand apart in the source; their conditions may differ. Like-named read-outs stand apart in the source and are kept apart here.
Columns and labels:
[1] = test system: ceramide-activated protein kinase
Method: Homogenates were centrifuged at 500×g for 5 minutes to remove nuclei and at 200,000×g for 30 minutes to prepare microsomal membranes. Membranes were resuspended into homogenizing buffer (2.2 μg membrane protein μl^-1). For assay of kinase activity, the reaction mixture contained 20 μl of microsomal membrane, 40 μl EGFR peptide (4 mg ml^-1 in 25 mM Hepes, pH 7.4) and 100 μl buffer (50 mM HEPES, pH 7.4, 20 mM MgCl2) (40). Phosphorylation was initiated at 22° C. by addition of 40 μl [γ-^32 P] ATP (100 μM final concentration) and terminated at the indicated times by addition of 40 μl of 0.5M ATP in 90% formic acid. Phosphorylated peptide was eluted from a C18 Sep pak cartridge (Millipore), lyophilized, and resolved by C18 reverse phase HPLC using a linear gradient of acetonitrile. […] All assays were performed under conditions determined as linear for time and enzyme concentration. Enzyme activity was determined from the percent conversion of substrate to product and the specific radioactivity of [γ-^32 P] ATP. […] Values (mean ± range) represent duplicate determinations from two experiments.
Activity was measured by the transfer of ^32 P from the γ-position of ATP to EGFR peptide (AA 663-681 of the EGFR). The effect of IL-1β on kinase activity was determined using microsomal membranes derived from cells stimulated with IL-1β.

[2] = test system: ceramide-activated protein kinase; settings: for effect on EGFR peptide phosphorylation (in words): A-431
[3] = test system: ceramide-activated protein kinase; settings: HL-60; cholera toxin 10 nM, retinoic acid 0.5 μM, butyrate 0.5 mM
[4] = test system: epidermal growth factor receptor (EGFR); settings: A-431 cells; cited from earlier work
[5] = test system: A-431 human epidermoid carcinoma cells; settings: A-431 cells; cited from earlier work
[6] = test system: ceramide-activated protein kinase; assay: Phosphoamino acid analysis of phosphorylated EGFR peptide; assay type: biochemical, human; settings: A-431
Source text: Reactions were done, and phosphorylated peptide was quantified as for FIG. 2. (Left) HPLC elution profile of samples with or without the EGFR peptide. (Right) Phosphoamino acid analysis of the phosphorylated peptide purified by HPLC. Phosphorylated amino acids (Y, […]; T, threonine; S, serine) were resolved by one-dimensional thin-layer electrophoresis and identified by ninhydrin staining of carrier phosphoamino acids and autoradiography.
To determine which amino acid was phosphorylated, phosphoamino acid analysis of the peptide was done. The phosphopeptide peak obtained by HPLC was subjected to partial acid hydrolysis (1 hr at 110° C. in 6M HCl). The hydrolysates were dried, resuspended in 250 μl of water, and applied to a Dowex AG1-X8 column (Bio-Rad). Amino acids were eluted with 0.5M HCl, dried, and analyzed by thin-layer electrophoresis, according to methods well known to those skilled in the art (26). Individual phosphoamino acids were identified by ninhydrin staining of carrier phosphoamino acids and by autoradiography.

[7] = test system: ceramide-activated protein kinase; settings: cited from earlier work
HL-60 cells [8] = settings: cited from earlier work
HL-60 cells [9] = settings: cited from earlier work; remark: listed apart in the source

CCCCCCCCCCCCC/C=C/[C@@H](O)[C@@H](N)CO [sphingosine]
enhancement of kinase activity ([1]; 10 nM to 1 μM): 1.5-2.5 of control | effect on EGFR peptide phosphorylation (in words) [2]: similarly effective | stimulation of EGFR peptide phosphorylation ([2]; sphingosine (0.001-3 μM), 2 minutes): 1.6 fold of control | effect on kinase activity (in words) [3]: similarly as effective as C8-cer | EGFR phosphorylation on Thr-669 [4]: enhanced phosphorylation of the EGFR on Thr-669; also recorded: stimulated phosphorylation of the EGFR on Thr-669; also recorded: induced epidermal growth factor receptor (EGFR) phosphorylation on Thr-669 | conversion to ceramide [5]: rapidly converted to ceramide

Ceramide
phosphorylated residue [6]: exclusively on the threonine residue | lowest effective concentration ([2]; 2 minutes): 1 nM | effect on EGFR peptide phosphorylation (in words) [2]: Only membrane activity was enhanced | effect on EGFR peptide phosphorylation (in words) ([2]; listed as natural ceramide (Sigma type III)): similarly effective | increase in kinase activity ([2]; a-431 cells, 0.5 min, 0.5 µM): 2 -fold | maximal effect on EGFR peptide phosphorylation ([2]; a-431 cells, 2 min, 1 µM): 2.1 -fold of control | lowest effective concentration ([2]; abstract): 1 nM | duration of stimulation of kinase activity ([2]; ceramide 0.5 μM): at least 15 minutes | time at which stimulation of EGFR peptide phosphorylation was evident ([2]; ceramide 0.5 μM): ≤ 30 s | concentration for maximal effect ([2]; peptide phosphorylation, 2 minutes): 1 µM | EC50 ([2]; read-out: ED50 for EGFR peptide phosphorylation, 2 minutes): ~30 nM | effect on kinase activity (in words) [3]: induced a similar effect | maximum enhancement of kinase activity ([7]; ceramide 0.001 to 3 μM): two-fold of the control | EGFR phosphorylation on Thr-669 [4]: induced identical effects; also recorded: induced identical phosphorylation

NH2 -Glu-Leu-Val-Glu-Pro-Leu-Thr-Pro-Ser-Gly-Glu-Ala-Pro-Asn-Gln-Ala-Leu-Leu-Arg-COOH (H-ELVEPLTPSGEAPNQALLR-OH) [EGFR peptide, EGFR peptide (amino acids 663-681)]
maximum reaction velocity ([1]; EL-4, baseline): 12.5 pmol min^-1 mg^-1 of microsomal membrane protein | Michaelis constant (Km) for EGFR peptide ([1]; EL-4 microsomal membrane, baseline): 0.15 mg/mL | phosphorylated residue [6]: only threonine-669 served as substrate | Apparent Km for EGFR peptide ([2]; A-431, 5 minutes): 0.25 mg/mL | Apparent Vmax ([2]; A-431, EGFR peptide substrate): 100-200 pmol.min^-` /mg of protein^-1 | maximum velocity (V°max) ([7]; EGFR peptide substrate): 50 to 100 pmol per minute per milligram (pmol min^-1 mg^-1) of protein | Michaelis constant (Km) for peptide ([7]; nuclei-free supernates): 0.25 mg/mL

B1: γ interferon: factor that induces monocytic differentiation of HL-60 cells (protein, UniProt P01579 24-161, looked up)
Interferon gamma: QDPYVKEAENLKKYFNAGHSDVADNGTLFLGILKNWKEESDRKIMQSQIVSFYFKLFKNFKDDQSIQKSVETIKEDMNVKFFNSNKKKRDDFEKLTNYSVTDLNVQRKAIHELIQVMAELSPAAKTGKRKRSQMLFRG
sphingomyelin degradation to ceramide / ceramide level (in words) (HL-60 cells [8]): stimulate sphingomyelin degradation to ceramide | monocytic differentiation (HL-60 cells [9]): induce monocytic differentiation
